Laboratory results: patent publication US20050272748A1, “2-Mercapto-substituted triazolopyrimidines, methods for the production thereof, the use of the same for controlling patogenic fungi, and agents containing said compounds” (BASF Aktiengesellschaft, priority 2002, published 2005)

System: Botrytis cinerea
Test: Activity against gray mold on bell pepper leaves, protective application
Assay type: in vivo
Settings: 250 ppm active compound; bell pepper seedlings sprayed to runoff, inoculated next day, evaluated after 5 days; untreated plants 45% infected
Description: The active compounds were prepared as a 10% strength emulsion in a mixture of 70% by weight of cyclohexanone, 20% by weight of Nekanil®) LN (Lutensol®) AP6, wetting agent having emulsifying and dispersing action based on ethoxylated alkylphenols) and 10% by weight of Wettol® EM (nonionic emulsifier based on ethoxylated castor oil) and diluted with water to the desired concentration. Use example: Activity against gray mold, caused by Botiytis cinerea, on bell pepper leaves, protective application Bell pepper seedlings of the cultivar “Neusiedler Ideal Elite” were, after 4 to 5 leaves were well-developed, sprayed to runoff-point with an aqueous suspension having the concentration of active compound stated below. The next day, the treated plants were inoculated with a spore suspension of Botrytis cinerea, which contained 1.7×10^6 spores/ml in an aqueous 2% strength biomalt solution. […] After 5 days, the extent of the fungal infection on the leaves could be determined visually in %. […] The efficacy (E) is calculated as follows, using Abbot's formula: E=(1−α/β)·100 • α corresponds to the fungal infection of the treated plants in % and • β corresponds to the fungal infection of the untreated (control) plants in % At an efficacy of 0, the degree of infection of the treated plants corresponds to that of the untreated control plants; at an efficacy of 100, the treated plants were not infected.

CC1CCN(c2c(-c3c(F)cc(F)cc3F)c(Cl)nc3nc(S)nn23)CC1 [Example 9, 5-chloro-7-(4-methylpiperidin-1-yl)-2-mercapto-6-(2,4,6-trifluorophenyl)-[1,2,4]-triazolo[1,5-a]pyrimidine]
efficacy (Abbot's formula): 56%
